Earlier results as cited in US11096912B2, “Valaciclovir and celecoxib combination for functional somatic syndromes” (INNOVATIVE MED CONCEPTS, LLC, priority 2012, dated 2021).

Test system: fibromyalgia patients
Conditions: valacyclovir alone; J. Rheumatology (2004) 31, 783-784

## CC(C)[C@H](N)C(=O)OCCOCn1cnc2c(=O)[nH]c(N)nc21 [valacyclovir]
  treatment of fibromyalgia patients: not successful
